Assay: Compatibility (precipitation) of polyvinylalcohol-acetate copolymer with charged active ingredients
Format: physicochemical
Conditions: for Formulability as oil-in-water emulsion (EW): Mowiol 4-88/SPAN 40 and TWEEN 40 system; for Behaviour of polyvinylalcohol when formulated with the charged active ingredient: oil in water emulsion / solution of the active ingredient
Source text: One of the challenges faced when formulating pesticidal compositions is the compatibility of active ingredients with additional formulation ingredients, such as surfactants. This is especially a challenge when the active ingredient is highly charged.

Structure (SMILES) | Quantity at the maximum ratio of Mowiol 4-88 to glufosinate and water at which the copolymer does not precipitate (ammonium glufosinate / Mowiol 4-88 (20% w/w in water) / water 90.15% w/w) [% w/w] | Quantity at the maximum ratio of Mowiol 4-88 to glyphosate and water at which the copolymer does not precipitate (potassium glyphosate / Mowiol 4-88 (20% w/w in water) / water 93.48% w/w) [% w/w] | Formulability as oil-in-water emulsion (EW) | Behaviour of polyvinylalcohol when formulated with the charged active ingredient
CP(=O)(O)CCC(N)C(=O)O.N (stereo not shown) [Ammonium glufosinate] | 8.49 | – | – | –
O=C(O)CNCP(=O)([O-])O.[K+] [Potassium glyphosate] | – | 5.76 | – | –
CP(=O)(O)CCC(N)C(=O)O (stereo not shown) [glufosinate] | – | – | cannot be formulated as an oil-in-water emulsion (EW) at a commercially acceptable concentration | precipitates out of solution
C[n+]1ccc(-c2cc[n+](C)cc2)cc1 [paraquat] | – | – | – | readily dissolves
O=C(O)CNCP(=O)(O)O [glyphosate] | – | – | cannot be formulated as an EW at a commercially acceptable concentration | precipitates out of solution
